Earlier results on 1 molecule are cited in patent EP3336085A1, “PROCESS AND INTERMEDIATE FOR THE PREPARATION OF 1-(4-(2-((1-(3,4-DIFLUOROPHENYL)-1H-PYRAZOL-3-YL)METHOXY)ETHYL)PIPERAZIN-1-YL)ETHANONE” (Laboratorios del Dr. Esteve S.A., priority 2016, dated 2018).

The structures appear in SMILES notation. Read-outs that look alike come from different tables or passages of the source.

Series [1] has as its target sigma-1 (σ1) receptor (Homo sapiens, UniProt Q99720).

Sequence of sigma-1 (σ1) receptor (Q99720 whole entry): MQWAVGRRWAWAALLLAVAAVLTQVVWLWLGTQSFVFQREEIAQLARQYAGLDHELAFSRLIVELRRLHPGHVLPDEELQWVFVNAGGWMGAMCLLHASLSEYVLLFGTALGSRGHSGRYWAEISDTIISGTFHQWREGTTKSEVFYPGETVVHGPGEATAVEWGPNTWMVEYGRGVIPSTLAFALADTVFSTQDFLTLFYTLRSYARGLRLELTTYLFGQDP

As for `CC(=O)N1CCN(CCOCc2ccn(-c3ccc(F)c(F)c3)n2)CC1.Cl` [1-(4-(2-((1-(3,4-difluorophenyl)-1 H-pyrazol-3-yl)methoxy)ethyl)piperazin-1-yl)ethanone hydrochloride], the water solubility entry is, setting by setting: (pH=2) “very soluble”; (pH=7.4) “very soluble”. The “sigma-1 (σ1) receptor antagonist selectivity” value in series [1] is recorded as “highly selective”.
